The text below walks through data of US20240076284A1, “NEW COMPOUNDS AND METHODS” (BENEVOLENTAI BIO LIMITED, priority 2020, published 2024).

The target in one data set is T1, MDR1 (Homo sapiens, UniProt P08183).
T1 construct: expressed in transfected cells; host or cells: MDCK (canine kidney) cells
Nature of the data set: MDR1-MDCK effective efflux ratio. Type of data set: in vitro ADME. The following applies: MDR1-MDCK relative to wild-type MDCK, 1 μM, 60 minutes, pH 7.4. The method, then: (§1) Wild-type MDCK, MDR1-MDCK and BCRP-MDCK cells were seeded into 24 well Transwell plates and cultured for 3 days to form monolayers. Test compound were prepared at 1 μM in Hanks' Balanced Salt Solution containing 25 mM HEPES and loaded into the donor compartments of Transwell plates bearing the cell monolayers (pH 7.4 for both donor and receiver compartments). Lucifer Yellow was added to the apical buffer in all wells to assess integrity of the cell monolayer. Duplicate wells were prepared and incubated at 37° C. in a CO2 incubator. Samples were removed at time zero and 60 minutes and test compound analysed by LC-MS/MS. Concentrations of Lucifer Yellow in the samples was measured using a fluorescence plate reader. The apparent permeability (Papp) values of test compound was determined for both the apical to basal (A>B) and basal to apical (B>A) permeation and the efflux ratio (B>A: A>B) determined in each cell line. The effective efflux ratio was determined from the ratio of either MDR1-MDCK cells or BCRP-MDCK cells relative to the ratio observed in wild-type cells. A higher value represent a better substrate for the efflux mechanism, which is less preferable.

Data set [1] in a line: Human microsomal stability. Type of data set: in vitro ADME. The following applies: human microsomes, first value of cell; NADPH, 37° C., up to 40 min. Here is the method:
(§2) This assay measures the metabolic stability of a given compound and predicts intrinsic liver clearance for various species. A quench plate is initially prepared which contains 400 μL MeCN and 25 ng/mL of internal standard. An aliquot of microsomes is defrosted and subsequently diluted with buffer. A solution of NADPH is made up fresh just before initialising the assay. 445 μL of microsome solution is added to the desired compound (5 μL in 10 μM DMSO) and the resulting solution mixed. The reaction is initiated by the addition of 50 μL of NADPH, a T0 sample is removed before the addition and quenched. The sample plate is kept at a constant 37° C. during the incubation. At pre-determined timepoints (2.5, 5, 10, 20 and 40 min) the incubation is mixed and 22.5 μL samples are transferred to quench plates. After completion of the time course, the quench plates are sealed and shaken for a minimum of 5 min, before centrifugation at 4000 rpm for 5 min. The supernatant is then subsequently transferred to a fresh plate and diluted 1:3 with MeOH/H2O. The plates are then heat sealed and analysed by a Water Acquity UPLC and a Waters TQ-S mass spectrometer. Waters MassLynx software is used for analysis using an MRM transition that has been previously generated from prior optimisation. After acquiring the data on the system the chromatograms are processed and checked using TargetLynx XS software and the raw data output is copied into a microsomal stability workbook. The workbook automatically populates and derives the CLint, t1/2 and scales the CLint values to generate Eh and predicted CL values. The analyst has the final workbook quality checked before the experiment is signed off.

The target of data set [2] is T2, Ba/F3 cells expressing BCR-ABL (Homo sapiens, UniProt P00519).
T2 construct: BCR (fusion partner, N-terminal portion of BCR); host or cells: Ba/F3 (murine pro-B cells); the other entry of the earlier key: BCR (P11274, Breakpoint cluster region protein)
T2 sequence (P00519 229-512 limits assumed): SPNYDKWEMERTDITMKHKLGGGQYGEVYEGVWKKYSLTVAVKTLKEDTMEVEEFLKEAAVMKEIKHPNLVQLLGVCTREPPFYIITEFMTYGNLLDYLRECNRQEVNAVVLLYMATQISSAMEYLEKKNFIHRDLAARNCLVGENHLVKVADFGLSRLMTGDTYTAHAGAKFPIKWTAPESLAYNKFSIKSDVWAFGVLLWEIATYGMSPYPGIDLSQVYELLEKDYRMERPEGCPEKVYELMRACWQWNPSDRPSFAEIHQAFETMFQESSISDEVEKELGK
Put plainly: Ba/F3 CellTiter-Glo Assay. Type of data set: cell-based. Conditions: 48 h incubation, CellTiter-Glo luminescence. Here is the method:
The CellTiter-Glo luminescent cell viability assay is a homogeneous method of determining the number of viable cells in culture based on quantification of the ATP present. Briefly, IL-3 dependent Ba/F3 cells are modified to express BCR-ABL. Activity of the transformed kinase overrides IL-3 dependency for cellular proliferation and survival. […] In this assay Ba/F3 cells expressing BCR-ABL (Advanced Cellular Dynamics) or parental Ba/F3 (control) cells were prepared at 5×10^4/mL in RPMI 1640 containing 10% FBS, 1×Glutamax and 750 ng/mL puromycin. Test compounds were dispensed into 384 well plates using the Tecan D300e at a top final assay concentration of 10 μM with dosing normalised to 0.1% DMSO in […]. 50 μL cells were added to each well of the prepared 384 well plates and the plates spun at 1000 rpm for 1 min prior to incubation at 37° C., 5% CO2 for 48 h. After 48 h 15 μL CellTiter-Glo reagent was added to each well in the plate. Following a 60 min incubation at rt luminescence was read on the Pherastar FS reader.

A further data set is described as follows: Rat microsomal stability. The following applies: rat microsomes, second value of cell; NADPH, 37° C., up to 40 min. Format: in vitro ADME. Here is the method:
as §2

The target in another data set is T3, BCRP (Homo sapiens, UniProt Q9UNQ0).
T3 construct: expressed in transfected cells; host or cells: MDCK (canine kidney) cells
T3 sequence (Q9UNQ0 1-655): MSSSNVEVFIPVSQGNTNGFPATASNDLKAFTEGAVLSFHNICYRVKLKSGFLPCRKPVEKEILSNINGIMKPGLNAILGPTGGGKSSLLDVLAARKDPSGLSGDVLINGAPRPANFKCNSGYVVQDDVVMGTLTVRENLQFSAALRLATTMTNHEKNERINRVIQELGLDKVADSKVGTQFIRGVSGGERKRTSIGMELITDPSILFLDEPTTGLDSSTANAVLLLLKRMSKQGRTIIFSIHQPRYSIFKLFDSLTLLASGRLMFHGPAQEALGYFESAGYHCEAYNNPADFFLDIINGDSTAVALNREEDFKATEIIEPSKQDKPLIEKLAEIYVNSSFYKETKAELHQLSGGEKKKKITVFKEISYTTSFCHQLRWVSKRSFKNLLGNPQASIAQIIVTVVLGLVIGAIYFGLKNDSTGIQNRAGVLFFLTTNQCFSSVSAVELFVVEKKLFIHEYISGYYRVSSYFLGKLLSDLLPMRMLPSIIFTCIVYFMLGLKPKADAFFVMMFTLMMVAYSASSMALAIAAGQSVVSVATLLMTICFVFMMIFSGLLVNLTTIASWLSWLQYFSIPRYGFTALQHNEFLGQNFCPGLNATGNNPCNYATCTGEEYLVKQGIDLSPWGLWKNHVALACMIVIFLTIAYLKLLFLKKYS
Nature of the data set: BCRP-MDCK effective efflux ratio. The following applies: BCRP-MDCK relative to wild-type MDCK, 1 μM, 60 minutes, pH 7.4. Type of data set: in vitro ADME. Here is the method: as §1

T1 sequence (P08183 whole entry, species assumed): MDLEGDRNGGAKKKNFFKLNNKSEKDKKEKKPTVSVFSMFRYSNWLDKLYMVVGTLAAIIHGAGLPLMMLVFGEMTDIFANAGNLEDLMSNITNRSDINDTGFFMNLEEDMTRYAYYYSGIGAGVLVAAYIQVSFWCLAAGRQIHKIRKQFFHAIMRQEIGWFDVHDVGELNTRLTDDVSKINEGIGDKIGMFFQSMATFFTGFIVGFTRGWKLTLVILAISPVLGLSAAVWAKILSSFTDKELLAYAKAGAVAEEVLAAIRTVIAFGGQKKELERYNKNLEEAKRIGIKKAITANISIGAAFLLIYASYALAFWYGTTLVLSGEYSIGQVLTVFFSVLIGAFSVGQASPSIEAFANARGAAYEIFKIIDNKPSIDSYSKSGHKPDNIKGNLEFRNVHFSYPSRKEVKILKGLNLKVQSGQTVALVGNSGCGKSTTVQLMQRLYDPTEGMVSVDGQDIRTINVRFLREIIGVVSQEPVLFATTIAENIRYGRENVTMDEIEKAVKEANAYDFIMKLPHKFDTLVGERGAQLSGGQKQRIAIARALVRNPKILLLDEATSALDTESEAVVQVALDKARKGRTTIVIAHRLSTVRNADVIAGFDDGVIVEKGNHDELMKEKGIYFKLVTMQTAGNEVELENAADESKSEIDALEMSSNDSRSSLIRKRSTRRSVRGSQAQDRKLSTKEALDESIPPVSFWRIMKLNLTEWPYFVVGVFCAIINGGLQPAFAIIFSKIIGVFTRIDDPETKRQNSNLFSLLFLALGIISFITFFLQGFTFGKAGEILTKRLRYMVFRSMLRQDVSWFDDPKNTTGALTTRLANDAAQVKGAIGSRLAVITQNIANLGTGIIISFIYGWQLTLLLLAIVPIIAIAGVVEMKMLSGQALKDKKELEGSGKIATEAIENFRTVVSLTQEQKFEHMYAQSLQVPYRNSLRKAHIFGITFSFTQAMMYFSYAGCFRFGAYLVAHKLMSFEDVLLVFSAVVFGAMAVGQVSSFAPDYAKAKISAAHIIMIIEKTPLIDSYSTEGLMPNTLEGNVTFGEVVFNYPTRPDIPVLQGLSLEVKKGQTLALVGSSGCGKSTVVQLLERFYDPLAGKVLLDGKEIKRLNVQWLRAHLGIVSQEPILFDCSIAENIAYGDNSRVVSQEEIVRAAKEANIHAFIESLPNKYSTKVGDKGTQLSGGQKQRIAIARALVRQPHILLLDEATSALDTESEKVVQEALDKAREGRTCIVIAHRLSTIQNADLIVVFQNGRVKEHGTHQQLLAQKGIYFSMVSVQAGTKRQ

As to `Cc1ccc(C(=O)Nc2cc(C(F)(F)F)ccn2)cc1-n1cc(-c2cncnc2)cn1` [Example 3, 4-Methyl-3-(4-pyrimidin-5-ylpyrazol-1-yl)-N-[4-(trifluoromethyl)-2-pyridyl]benzamide], the “MDCK MDR1 EER” value at MDR1 stood at 1.0. Moreover, the “Microsomal stability (human/rat) Eh” value in data set [1] is 0.56; in “Rat microsomal stability” it was 0.44. Further, in data set [2], the IC50 turned out to be 25 nM. Also, the “MDCK BCRP EER” value on BCRP worked out at 1.0.

In the case of `Cc1ccc(C(=O)Nc2cc(C(F)(F)F)ccn2)cc1-n1cc(-c2cccnc2)cn1` [Example 1, 4-Methyl-3-[4-(3-pyridyl)pyrazol-1-yl]-N-[4-(trifluoromethyl)-2-pyridyl]benzamide], the “MDCK MDR1 EER” value at MDR1 is on record as 1. The “Microsomal stability (human/rat) Eh” value was determined as 0.70 in data set [1] and 0.69 in the data set “Rat microsomal stability”. This molecule also displayed an IC50 in data set [2] of 22 nM. Moreover, the “MDCK BCRP EER” value on BCRP is 1.5.
